From the NIST ThermoML archive (doi:10.1016/j.tca.2010.08.002)
± gives the expanded uncertainty stated by the source.

Assay: molar heat capacity at saturation pressure
Details: Vacuum adiabatic calorimetry

CCCCn1cc[n+](C)c1.O=S(=O)([O-])C(F)(F)F [1-butyl-3-methylimidazolium trifluoromethanesulfonate]
Details	molar heat capacity [J/K/mol]
170.36 K, Crystal	235.9 ± 0.4
171.28 K, Crystal	236.8 ± 0.4
172.71 K, Crystal	238.3 ± 0.4
173.26 K, Crystal	238.8 ± 0.4
175.07 K, Crystal	240.6 ± 0.4
175.23 K, Crystal	240.9 ± 0.4
177.2 K, Crystal	242.9 ± 0.4
177.42 K, Crystal	243.1 ± 0.4
179.17 K, Crystal	245 ± 0.4
179.77 K, Crystal	245.6 ± 0.4
181.13 K, Crystal	247.1 ± 0.5
182.11 K, Crystal	248.1 ± 0.5
183.1 K, Crystal	249.2 ± 0.5
184.46 K, Crystal	250.6 ± 0.5
185.06 K, Crystal	251.3 ± 0.5
186.8 K, Crystal	253.2 ± 0.5
187.02 K, Crystal	253.5 ± 0.5
188.97 K, Crystal	255.7 ± 0.5
189.13 K, Crystal	255.8 ± 0.5
190.92 K, Crystal	257.9 ± 0.5
191.47 K, Crystal	258.4 ± 0.5
192.87 K, Crystal	260 ± 0.5
193.8 K, Crystal	260.9 ± 0.5
194.82 K, Crystal	262.1 ± 0.5
196.12 K, Crystal	263.5 ± 0.5
196.77 K, Crystal	264.3 ± 0.5
198.44 K, Crystal	266.1 ± 0.5
198.72 K, Crystal	266.6 ± 0.5
200.66 K, Crystal	268.7 ± 0.5
200.76 K, Crystal	268.7 ± 0.5
202.67 K, Crystal	271 ± 0.5
203.13 K, Crystal	271.4 ± 0.5
204.73 K, Crystal	273.3 ± 0.5
205.57 K, Crystal	274.2 ± 0.5
206.78 K, Crystal	275.7 ± 0.5
208 K, Crystal	276.9 ± 0.5
208.82 K, Crystal	278.1 ± 0.5
210.42 K, Crystal	279.6 ± 0.5
210.87 K, Crystal	280.4 ± 0.5
212.84 K, Crystal	282.5 ± 0.5
212.92 K, Crystal	282.7 ± 0.5
214.96 K, Crystal	285 ± 0.5
215.25 K, Crystal	285.3 ± 0.5
217 K, Crystal	287.4 ± 0.5
217.66 K, Crystal	288 ± 0.5
219.02 K, Crystal	289.6 ± 0.5
220.07 K, Crystal	290.8 ± 0.5
221.05 K, Crystal	292.2 ± 0.5
222.47 K, Crystal	293.7 ± 0.5
223.08 K, Crystal	294.5 ± 0.5
224.86 K, Crystal	296.5 ± 0.5
225.1 K, Crystal	296.8 ± 0.5
227.12 K, Crystal	299.4 ± 0.5
227.25 K, Crystal	299.4 ± 0.5
229.13 K, Crystal	301.7 ± 0.5
229.63 K, Crystal	302.3 ± 0.5
231.14 K, Crystal	304 ± 0.5
232 K, Crystal	305.2 ± 0.5
233.14 K, Crystal	306.6 ± 0.5
234.37 K, Crystal	308.1 ± 0.5
235.15 K, Crystal	308.9 ± 0.5
236.73 K, Crystal	311 ± 0.5
237.14 K, Crystal	311.5 ± 0.5
239.09 K, Crystal	313.8 ± 0.5
239.13 K, Crystal	313.8 ± 0.5
241.12 K, Crystal	316.1 ± 0.5
241.44 K, Crystal	316.7 ± 0.5
243.1 K, Crystal	318.7 ± 0.5
243.78 K, Crystal	319.6 ± 0.5
245.08 K, Crystal	321 ± 0.5
246.12 K, Crystal	322.2 ± 0.5
247.06 K, Crystal	323.3 ± 0.5
248.45 K, Crystal	325.1 ± 0.5
249.03 K, Crystal	325.9 ± 0.5
250.76 K, Crystal	328 ± 0.5
250.78 K, Crystal	328 ± 0.5
250.99 K, Crystal	328.3 ± 0.5
252.81 K, Crystal	330.6 ± 0.5
252.95 K, Crystal	330.6 ± 0.5
253.1 K, Crystal	330.8 ± 0.5
254.78 K, Crystal	332.9 ± 0.5
254.91 K, Crystal	333.2 ± 0.5
255.41 K, Crystal	333.7 ± 0.5
256.73 K, Crystal	335.5 ± 0.5
256.86 K, Crystal	335.5 ± 0.5
257.72 K, Crystal	336.3 ± 0.5
258.69 K, Crystal	337.8 ± 0.5
258.81 K, Crystal	337.8 ± 0.5
260.02 K, Crystal	339.2 ± 0.5
260.34 K, Crystal	339.8 ± 0.5
260.64 K, Crystal	340.4 ± 0.5
260.75 K, Crystal	340.4 ± 0.5
262.32 K, Crystal	342.1 ± 0.5
262.38 K, Crystal	342.4 ± 0.5
262.59 K, Crystal	342.7 ± 0.5
262.69 K, Crystal	342.7 ± 0.5
264.34 K, Crystal	345 ± 0.5
264.53 K, Crystal	345.3 ± 0.5
264.6 K, Crystal	345 ± 0.5
264.62 K, Crystal	345.3 ± 0.5
265.54 K, Crystal	346.1 ± 0.5
266.29 K, Crystal	347.3 ± 0.6
266.46 K, Crystal	347.6 ± 0.6
266.56 K, Crystal	347.6 ± 0.6
266.89 K, Crystal	347.9 ± 0.6
267.48 K, Crystal	348.7 ± 0.6
268.23 K, Crystal	349.9 ± 0.6
268.4 K, Crystal	349.9 ± 0.6
268.49 K, Crystal	350.2 ± 0.6
269.17 K, Crystal	350.7 ± 0.6
291.91 K, Liquid	424.4 ± 0.6
293.17 K, Liquid	425 ± 0.6
293.82 K, Liquid	425.6 ± 0.6
294.28 K, Liquid	425.6 ± 0.6
295.28 K, Liquid	426.2 ± 0.6
295.44 K, Liquid	426.2 ± 0.6
295.71 K, Liquid	426.5 ± 0.6
297.38 K, Liquid	427 ± 0.6
297.43 K, Liquid	427.3 ± 0.6
297.61 K, Liquid	427.6 ± 0.6
299.48 K, Liquid	428.2 ± 0.6
301.69 K, Liquid	429.6 ± 0.6
304 K, Liquid	430.8 ± 0.6
306.31 K, Liquid	431.9 ± 0.6
308.62 K, Liquid	433.1 ± 0.6
310.93 K, Liquid	434.5 ± 0.6
313.24 K, Liquid	435.7 ± 0.6
315.55 K, Liquid	436.8 ± 0.6
317.86 K, Liquid	438 ± 0.6
320.17 K, Liquid	439.1 ± 0.6
322.48 K, Liquid	440.6 ± 0.6
324.79 K, Liquid	441.7 ± 0.6
327.1 K, Liquid	443.2 ± 0.6
329.4 K, Liquid	444.3 ± 0.6
331.71 K, Liquid	445.5 ± 0.6
334.02 K, Liquid	446.6 ± 0.6
336.33 K, Liquid	448.1 ± 0.7
338.64 K, Liquid	449.2 ± 0.7
340.94 K, Liquid	450.7 ± 0.7
343.24 K, Liquid	451.8 ± 0.7
345.55 K, Liquid	453 ± 0.7
347.85 K, Liquid	454.3 ± 0.7
350.16 K, Liquid	455.5 ± 0.7
352.47 K, Liquid	456.9 ± 0.7
354.77 K, Liquid	458.1 ± 0.7
357.08 K, Liquid	459.5 ± 0.7
359.38 K, Liquid	460.7 ± 0.7
361.68 K, Liquid	461.8 ± 0.7
363.99 K, Liquid	463 ± 0.7
366.29 K, Liquid	464.4 ± 0.7
368.59 K, Liquid	465.6 ± 0.7
